Experimental data: ChEMBL document CHEMBL1201862, “PubChem BioAssay data set” (2004)
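These data come from cells grown in 96-well plates and exposed to compound for 48 hours at five concentrations. The concentration for 50% growth inhibition is given as GI50.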 The source made the active and inactive calls. Rule as the data show it: active = GI50 up to about 1.1 µM and inactive = higher.

Columns and labels:
Assay in all cases: growth of human tumour cells (NCI), 48 h
UACC-257 = system: UACC-257
MCF7 = system: MCF7
A549 = system: A549
Hs-578T = system: Hs-578T
Malme-3M = system: Malme-3M
K562 = system: K562
OVCAR-4 = system: OVCAR-4
OVCAR-3 = system: OVCAR-3
MOLT-4 = system: MOLT-4
CAKI-1 = system: CAKI-1
HT-29 = system: HT-29
DU-145 = system: DU-145
RXF 393 = system: RXF 393
SK-OV-3 = system: SK-OV-3
ACHN = system: ACHN
HL-60 = system: HL-60
PC-3 = system: PC-3
A498 = system: A498
UACC-62 = system: UACC-62
SK-MEL-2 = system: SK-MEL-2
RPMI-8226 = system: RPMI-8226
BT-549 = system: BT-549
LOX IMVI = system: LOX IMVI
SF-268 = system: SF-268
CCRF-CEM = system: CCRF-CEM
SN12C = system: SN12C
COLO 205 = system: COLO 205
TK-10 = system: TK-10
HCT-116 = system: HCT-116
HOP-92 = system: HOP-92
M14 = system: M14
SK-MEL-28 = system: SK-MEL-28
IGROV-1 = system: IGROV-1
MDA-MB-435 = system: MDA-MB-435
SW-620 = system: SW-620
EKVX = system: EKVX
NCI-H460 = system: NCI-H460
UO-31 = system: UO-31
MDA-N = system: MDA-N
786-0 = system: 786-0
SK-MEL-5 = system: SK-MEL-5
SNB-19 = system: SNB-19
HOP-62 = system: HOP-62
OVCAR-8 = system: OVCAR-8
HCC 2998 = system: HCC 2998
SF-295 = system: SF-295
NCI-H522 = system: NCI-H522
OVCAR-5 = system: OVCAR-5
SF-539 = system: SF-539
NCI-H23 = system: NCI-H23
HCT-15 = system: HCT-15
NCI/ADR-RES = system: NCI/ADR-RES
NCI-H226 = system: NCI-H226
MDA-MB-231 = system: MDA-MB-231
SR = system: SR
U-251 = system: U-251
KM12 = system: KM12
T47D = system: T47D

What does the source list for `NC1=NCCN1CC(=O)O` [CYCLOCREATINE]?
GI50 (UACC-257): > 1000 µM (inactive); GI50 (MCF7): > 1000 µM (inactive); GI50 (A549): > 1000 µM (inactive); GI50 (Hs-578T): 4040 µM (inactive); GI50 (Malme-3M): > 1000 µM (inactive); GI50 (K562): > 1000 µM (inactive); GI50 (OVCAR-4): > 1000 µM (inactive); GI50 (OVCAR-3): > 1000 µM (inactive); GI50 (MOLT-4): > 1000 µM (inactive); GI50 (CAKI-1): > 10000 µM (inactive); GI50 (HT-29): > 1000 µM (inactive); GI50 (DU-145): > 1000 µM (inactive); GI50 (RXF 393): > 1000 µM (inactive); GI50 (SK-OV-3): > 1000 µM (inactive); GI50 (ACHN): > 1000 µM (inactive); GI50 (HL-60): > 1000 µM (inactive); GI50 (PC-3): > 1000 µM (inactive); GI50 (A498): > 1000 µM (inactive); GI50 (UACC-62): > 1000 µM (inactive); GI50 (SK-MEL-2): > 1000 µM (inactive); GI50 (RPMI-8226): > 1000 µM (inactive); GI50 (BT-549): > 1000 µM (inactive); GI50 (LOX IMVI): > 1000 µM (inactive); GI50 (SF-268): 4990 µM (inactive); GI50 (CCRF-CEM): > 1000 µM (inactive); GI50 (SN12C): > 1000 µM (inactive); GI50 (COLO 205): > 1000 µM (inactive); GI50 (TK-10): > 1000 µM (inactive); GI50 (HCT-116): > 1000 µM (inactive); GI50 (HOP-92): > 1000 µM (inactive); GI50 (M14): > 1000 µM (inactive); GI50 (SK-MEL-28): > 1000 µM (inactive); GI50 (IGROV-1): > 1000 µM (inactive); GI50 (MDA-MB-435): > 1000 µM (inactive); GI50 (SW-620): > 1000 µM (inactive); GI50 (EKVX): > 10000 µM (inactive); GI50 (NCI-H460): > 1000 µM (inactive); GI50 (UO-31): > 1000 µM (inactive); GI50 (MDA-N): > 10000 µM (inactive); GI50 (786-0): > 1000 µM (inactive); GI50 (SK-MEL-5): > 1000 µM (inactive); GI50 (SNB-19): > 1000 µM (inactive); GI50 (HOP-62): > 1000 µM (inactive); GI50 (OVCAR-8): > 1000 µM (inactive); GI50 (HCC 2998): > 1000 µM (inactive); GI50 (SF-295): > 10000 µM (inactive); GI50 (NCI-H522): > 10000 µM (inactive); GI50 (OVCAR-5): > 1000 µM (inactive); GI50 (SF-539): > 1000 µM (inactive); GI50 (NCI-H23): > 1000 µM (inactive); GI50 (HCT-15): > 1000 µM; GI50 (NCI/ADR-RES): > 1000 µM (inactive); GI50 (NCI-H226): > 1000 µM (inactive); GI50 (MDA-MB-231): > 1000 µM (inactive); GI50 (SR): > 1000 µM (inactive); GI50 (U-251): > 1000 µM (inactive); GI50 (KM12): > 10000 µM (inactive); GI50 (T47D): > 1000 µM (inactive)
